Results taken from US10150751B2 (Merck Sharp & Dohme Corp., priority 2014, dated 2018).

Assays:
[1] = biological target: hOX1R (orexin-1 receptor) (Homo sapiens, UniProt O43613); experiment: FLIPR Ca2+ flux assay, hOX1R; assay type: cell-based; settings: CHO cells expressing the orexin-1 receptor (head: hOX1R; method: rat); agonist 70 pM Ala-6,12 orexin-A
[2] = biological target: human orexin-2 receptor (Homo sapiens (Human), UniProt O43614); experiment: FLIPR Ca2+ flux assay, hOX2R; assay type: cell-based; settings: CHO cells expressing the human orexin-2 receptor; agonist 70 pM Ala-6,12 orexin-A
Description: The utility of the compounds in accordance with the present invention as orexin receptor OX1R and/or OX2R antagonists may be readily determined without undue experimentation by methodology well known in the art, including the “FLIPR Ca^2+ Flux Assay” (Okumura et al., Biochem. Biophys. Res. Comm. 280:976-981, 2001). In a typical experiment the OX1 and OX2 receptor antagonistic activity of the compounds of the present invention was determined in accordance with the following experimental method. For intracellular calcium measurements, Chinese hamster ovary (CHO) cells expressing the rat orexin-1 receptor or the human orexin-2 receptor, are grown in Iscove's modified DMEM containing 2 mM L-glutamine, […], 1% hypoxanthine-thymidine supplement, 100 U/ml penicillin, 100 μg/ml streptomycin and 10% heat-inactivated fetal calf serum (FCS). The cells are seeded at 20,000 cells/well into Becton-Dickinson black 384-well clear bottom sterile plates coated with poly-D-lysine. All reagents were from GIBCO-Invitrogen Corp. The seeded plates are incubated overnight at 37° C. and 5% CO2. Ala-6,12 human orexin-A as the agonist is prepared as a 1 mM stock solution in 1% bovine serum albumin (BSA) and diluted in assay buffer (HBSS containing 20 mM HEPES, 0.1% BSA and 2.5 mM probenecid, pH7.4) for use in the assay at a final concentration of 70pM. Test compounds are prepared as 10 mM stock solution in DMSO, then diluted in 384-well plates, first in DMSO, then assay buffer. On the day of the assay, cells are washed 3 times with 100 μl assay buffer and then incubated for 60 min (37° C., 5% CO2) in 60 μl assay buffer containing 1 μM Fluo-4AM ester, 0.02% pluronic acid, and 1% BSA. The dye loading solution is then aspirated and cells are washed 3 times with 100 μl assay buffer. 30 μl of that same buffer is left in each well. Within the Fluorescent Imaging Plate Reader (FLIPR, Molecular Devices), test compounds are added to the plate in a volume of 25 μl, incubated for 5 min and finally 25 μl of agonist is added. Fluorescence is measured for each well at 1 second intervals for 5 minutes and the height of each fluorescence peak is compared to the height of the fluorescence peak induced by 70 pM Ala-6,12 orexin-A with buffer in place of antagonist. For each antagonist, IC50 value (the concentration of compound needed to inhibit 50% of the agonist response) is determined. Alternatively, compound potency can be assessed by a radioligand binding assay (described in Bergman et. al. Bioorg. Med. Chem. Lett. 2008, 18, 1425-1430) in which the inhibition constant (Ki) is determined in membranes prepared from CHO cells expressing either the OX1 or OX2 receptor. The intrinsic orexin receptor antagonist activity of a compound which may be used in the present invention may be determined by these assays.

Sequence of human orexin-2 receptor (O43614 whole entry): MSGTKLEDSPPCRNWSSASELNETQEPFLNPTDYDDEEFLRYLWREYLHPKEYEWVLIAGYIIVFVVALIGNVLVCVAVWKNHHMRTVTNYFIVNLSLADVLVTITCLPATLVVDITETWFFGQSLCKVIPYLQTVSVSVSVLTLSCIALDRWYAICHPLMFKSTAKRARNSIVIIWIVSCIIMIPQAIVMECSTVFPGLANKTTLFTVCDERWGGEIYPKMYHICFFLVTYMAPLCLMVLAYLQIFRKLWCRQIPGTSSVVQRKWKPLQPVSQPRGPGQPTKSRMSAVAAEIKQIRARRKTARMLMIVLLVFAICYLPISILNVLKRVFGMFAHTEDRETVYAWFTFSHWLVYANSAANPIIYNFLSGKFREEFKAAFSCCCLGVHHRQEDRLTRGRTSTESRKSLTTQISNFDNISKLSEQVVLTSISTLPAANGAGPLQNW

SMILES | IC50 [1] [nM] | IC50 [2] [nM] | hOX2R FLIPR IC50 [2]
C[C@@H]1C[C@@H](Nc2cc(OCC(F)F)ccn2)CN1C(=O)c1ccccc1C1(C#N)CC1 [Example 2, 1-(2-((2R,4R)-4-((4-(2,2-difluoroethoxy)pyridin-2-yl)amino)-2-methylpyrrolidine-1-carbonyl)phenyl)cyclopropanecarbonitrile] | 10000 | 65.1 | –
C[C@@H]1C[C@@H](Nc2cc(OCC(F)F)ccn2)CN1C(=O)c1ccccc1-n1ncnn1 [Example 3, (2-(2H-tetrazol-2-yl)phenyl)((2R,4R)-4-((4-(2,2-difluoroethoxy)pyridin-2-yl)amino)-2-methylpyrrolidin-1-yl)methanone] | > 10000 | 367 | –
C[C@@H]1C[C@@H](Nc2cc(OCC(F)F)ccn2)CN1C(=O)c1ccsc1-c1ncccn1 [Example 4] | > 10000 | 520 | –
C[C@@H]1C[C@@H](Nc2cc(OCC(F)F)ccn2)CN1C(=O)c1ccsc1-n1nccn1 [Example 5] | > 10000 | 625 | –
CCOc1ncccc1C(=O)N1C[C@H](Nc2cc(OCC(F)F)ccn2)C[C@H]1C [Example 6, ((2R,4R)-4-((4-(2,2-difluoroethoxy)pyridin-2-yl)amino)-2-methylpyrrolidin-1-yl)(2-ethoxypyridin-3-yl)methanone] | > 10000 | 989 | –
C[C@@H]1C[C@@H](Nc2cc(OCC(F)F)ccn2)CN1C(=O)c1cccc2c1CCC2 [Example 7, ((2R,4R)-4-((4-(2,2-difluoroethoxy)pyridin-2-yl)amino)-2-methylpyrrolidin-1-yl)(2,3-dihydro-1H-inden-4-yl)methanone] | > 10000 | 2000 | –
C[C@@H]1C[C@@H](Nc2ccc(F)cn2)CN1C(=O)c1ccccc1-n1nccn1 [Example 11, (2-(2H-1,2,3-triazol-2-yl)phenyl)((2R,4R)-4-((5-fluoropyridin-2-yl)amino)-2-methylpyrrolidin-1-yl)methanone] | 6290 | 175 | –
C[C@@H]1C[C@@H](Nc2cc(F)ccn2)CN1C(=O)c1ccccc1-n1nccn1 [Example 17, (2-(2H-1,2,3-triazol-2-yl)phenyl)((2R,4R)-4-((4-fluoropyridin-2-yl)amino)-2-methylpyrrolidin-1-yl)methanone] | > 10000 | 119 | –
COc1ccnc(N[C@@H]2C[C@@H](C)N(C(=O)c3ccccc3-n3nccn3)C2)c1C#N [Example 18, 2-(((3R,5R)-1-(2-(2H-1,2,3-triazol-2-yl)benzoyl)-5-methylpyrrolidin-3-yl)amino)-4-methoxynicotinonitrile] | > 10000 | 167 | –
C[C@@H]1C[C@@H](Nc2cc(C#N)ccn2)CN1C(=O)c1ccccc1-n1nccn1 [Example 19, 2-(((3R,5R)-1-(2-(2H-1,2,3-triazol-2-yl)benzoyl)-5-methylpyrrolidin-3-yl)amino)isonicotinonitrile] | > 10000 | 22.9 | –
C[C@@H]1C[C@@H](N(C)c2cc(C#N)ccn2)CN1C(=O)c1ccccc1-n1nccn1 [Example 23, 2-(((3R,5R)-1-(2-(2H-1,2,3-triazol-2-yl)benzoyl)-5-methylpyrrolidin-3-yl)(methyl)amino)isonicotinonitrile] | > 10000 | – | 120/5
C[C@@H]1C[C@@H](Nc2cc(C(F)F)ccn2)CN1C(=O)c1ccsc1-n1nccn1 [Example 27, (2-(2H-1,2,3-Triazol-2-yl)thiophen-3-yl)((2R,4R)-4-((4-(difluoromethyl)pyridin-2-yl)amino)-2-methylpyrrolidin-1-yl)methanone] | > 10000 | 67.8 | –
C[C@@H]1C[C@@H](Nc2cc(C(F)F)ccn2)CN1C(=O)c1cscc1-n1nccn1 [Example 28, (4-(2H-1,2,3-triazol-2-yl)thiophen-3-yl)((2R,4R)-4-((4-(difluoromethyl)pyridin-2-yl)amino)-2-methylpyrrolidin-1-yl)methanone] | > 10000 | 102 | –
C[C@@H]1C[C@@H](Nc2cc(C#N)ccn2)CN1C(=O)c1ccccc1-n1ncnn1 [Example 29, 2-(((3R,5R)-1-(2-(2H-tetrazol-2-yl)benzoyl)-5-methylpyrrolidin-3-yl)amino)isonicotinonitrile] | > 10000 | 302 | –
C[C@@H]1C[C@@H](Nc2cc(C#N)ccn2)CN1C(=O)c1ccccc1-c1ncccn1 [Example 30, 2-(((3R,5R)-5-Methyl-1-(2-(pyrimidin-2-yl)benzoyl)pyrrolidin-3-yl)amino)isonicotinonitrile] | > 10000 | 31.1 | –

Molecules with a lower IC50 [1], results first:

IC50 [1] [nM] | IC50 [2] [nM] | SMILES | hOX2R FLIPR IC50 [2]
1630 | 13.6 | C[C@@H]1C[C@@H](Nc2cc(C(F)F)ccn2)CN1C(=O)c1ccccc1-n1nccn1 [Example 9, (2-(2H-1,2,3-triazol-2-yl)phenyl)((2R,4R)-4-((4-(difluoromethyl)pyridin-2-yl)amino)-2-methylpyrrolidin-1-yl)methanone] | –
257 | 15.3 | C[C@@H]1C[C@@H](Nc2nccc3ccccc23)CN1C(=O)c1ccccc1-n1nccn1 [Example 12, (2-(2H-1,2,3-triazol-2-yl)phenyl)((2R,4R)-4-(isoquinolin-1-ylamino)-2-methylpyrrolidin-1-yl)methanone] | –
1090 | 26.3 | C[C@@H]1C[C@@H](Nc2cc(C(F)(F)F)ccn2)CN1C(=O)c1ccccc1-n1nccn1 [Example 14, (2-(2H-1,2,3-triazol-2-yl)phenyl)((2R,4R)-2-methyl-4-((4-(trifluoromethyl)pyridin-2-yl)amino)pyrrolidin-1-yl)methanone] | –
1160 | 23.1 | C[C@@H]1C[C@@H](Nc2cc(Cl)ccn2)CN1C(=O)c1ccccc1-n1nccn1 [Example 15, (2-(2H-1,2,3-triazol-2-yl)phenyl)((2R,4R)-4-((4-chloropyridin-2-yl)amino)-2-methylpyrrolidin-1-yl)methanone] | –
4070 | 75.9 | Cc1ccnc(N[C@@H]2C[C@@H](C)N(C(=O)c3ccccc3-n3nccn3)C2)c1 [Example 16, (2-(2H-1,2,3-triazol-2-yl)phenyl)((2R,4R)-2-methyl-4-((4-methylpyridin-2-yl)amino)pyrrolidin-1-yl)methanone] | –
2800 | 39.8 | CC(C)Oc1ccnc(N[C@@H]2C[C@@H](C)N(C(=O)c3ccccc3-n3nccn3)C2)c1 [Example 20, (2-(2H-1,2,3-Triazol-2-yl)phenyl)((2R,4R)-4-((4-isopropoxypyridin-2-yl)amino)-2-methylpyrrolidin-1-yl)methanone] | –
3990 | 31.5 | CCOc1ccnc(N[C@@H]2C[C@@H](C)N(C(=O)c3ccccc3-n3nccn3)C2)c1 [Example 21, (2-(2H-1,2,3-triazol-2-yl)phenyl)((2R,4R)-4-((4-ethoxypyridin-2-yl)amino)-2-methylpyrrolidin-1-yl)methanone] | –
2720 | 23.9 | COc1ccnc(N[C@@H]2C[C@@H](C)N(C(=O)c3ccccc3C3(C#N)CC3)C2)c1 [Example 24, 1-(2-((2R,4R)-4-((4-Methoxypyridin-2-yl)amino)-2-methylpyrrolidine-1-carbonyl)phenyl)cyclopropanecarbonitrile] | –
3380 | 36.1 | COc1cccnc1N[C@@H]1C[C@@H](C)N(C(=O)c2ccccc2-n2nccn2)C1 [Example 25, (2-(2H-1,2,3-triazol-2-yl)phenyl)((2R,4R)-4-((3-methoxypyridin-2-yl)amino)-2-methylpyrrolidin-1-yl)methanone] | –
